In patent US9155696B2, “Pharmaceutical compositions” (Novartis AG, priority 2008, dated 2015):

Tested on: erythrocytes of female and male blood donor
Experiment: Hemolysis study of solvents
Type: cell-based
Settings: for Hemolysis [%]: female and male blood donor (n = 4)
Protocol: To outline the suitability of PEG500DME as a solvent for parenteral use, a hemolysis study was performed: […]

[1] = dilution 1:2 with 0.9% NaCl solution
[2] = dilution 1:4 with 0.9% NaCl solution
[3] = dilution 1:8 with 0.9% NaCl solution
[4] = dilution 1:16 with 0.9% NaCl solution
[5] = dilution 1:32 with 0.9% NaCl solution
[6] = dilution 1:64 with 0.9% NaCl solution
[7] = dilution 1:128 with 0.9% NaCl solution

CN1CCCC1=O [NMP, 1-methyl-2-pyrrolidinone]
Hemolysis [%] in donor one (dilution 0 (pure solvent)): 28%
Hemolysis [%] in donor one [1]: 0%
Hemolysis [%] in donor one [2]: 0%
Hemolysis [%] in donor one [3]: 0%
Hemolysis [%] in donor one [4]: 0%
Hemolysis [%] in donor one [5]: 0%
Hemolysis [%] in donor one [6]: 0%
Hemolysis [%] in donor one [7]: 0%
Hemolysis [%] in donor two (dilution 0 (pure solvent)): 54%
Hemolysis [%] in donor two [1]: 10%
Hemolysis [%] in donor two [2]: 1%
Hemolysis [%] in donor two [3]: 1%
Hemolysis [%] in donor two [4]: 1%
Hemolysis [%] in donor two [5]: 1%
Hemolysis [%] in donor two [6]: 1%
Hemolysis [%] in donor two [7]: 1%
Hemolysis [%] [1]: 7.8 ± 5.6%
Hemolysis [%] [2]: 0.5 ± 0.6%
Hemolysis [%] [3]: 0.3 ± 0.5%
Hemolysis [%] [4]: 0.3 ± 0.5%
Hemolysis [%] [5]: 0.3 ± 0.5%
Hemolysis [%] [6]: 0.3 ± 0.5%
Hemolysis [%] [7]: 0.3 ± 0.5%
